The subject of the assay is L929 cell line (mouse fibroblastoma cell line). The experiment in a line: L929 cell viability assay (mTNF-α + Z-VAD-FMK induced necroptosis). Type of assay: cell-based. The settings on record: Mus musculus, L929, 20 h, L929 cells, mTNF-α 0.1 μg/mL + Z-VAD-FMK 5 μM, CellTiter-Glo. The essentials:
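L929 cells (4.9×10^3/well) in 1% FBS MEM got compound (10 to 0.005 μM, 0.3% DMSO), then 5 μM Z-VAD-FMK for 1 h, then 0.1 μg/mL mTNF-α for 20 h at 37 °C. CellTiter-Glo luminescence was normalised between TNF/Z-VAD and unstimulated wells, and IC50 was curve-fitted.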
In general terms: In ATP-based viability assays light output follows the ATP content of the culture.

On to `CC(C)n1cncc(-c2ccc(C3(NC(=O)c4ncc5cnn([C@@H](C)C6CC6)c5n4)CC3)cc2)c1=O` [Compound 90, (S)-1-(1-cyclopropylethyl)-N-(1-(4-(1-i-propyl-6-oxo-1,6-dihydropyrimidin-5-yl)phenyl)cyclopropyl)-1H-pyrazolo[3,4-d]pyrimidine-6-carboxamide], for which the IC50 – broadly, the midpoint of a concentration-inhibition curve – was determined as 12 nM. For `CC(C)n1cncc(-c2ccc(C3(NC(=O)c4ncc5cnn(C(C)C)c5n4)CC3)c(F)c2Cl)c1=O` [Compound 91], the IC50 was found to be 786 nM. The result for `CC(C)n1cncc(-c2cc(F)c(C3(NC(=O)c4ncc5cnn(C(C)C)c5n4)CC3)c(F)c2)c1=O` [Compound 92] reads 3130 nM; that for `CC(C)n1cncc(-c2ccc(C3(NC(=O)c4ncc5cnn(C(C)C)c5n4)CC3)c(F)c2F)c1=O` [Compound 93], 148 nM; that for `CC(C)n1ncc2cnc(C(=O)NC3(c4cc(F)c(-c5cncn(CC6CC6)c5=O)cc4F)CC3)nc21` [Compound 94], 50 nM. Turning to `CC(C)n1ncc2cnc(C(=O)NC3(c4ccc(-c5cncn(CC6CC6)c5=O)c(F)c4F)CC3)nc21` [Compound 95], the IC50 stood at 145 nM.
